Measurements taken from publication PMC10946398 (Journal of Medicinal Chemistry, 2024).
Several values for one entry are separate records, joined by “and”; a condition that tells them apart may be missing. Identical values can stand only once.

test: parallel artificial membrane permeability assay; type: in vitro ADME; conditions: 100 μM, phosphate buffer pH 6.4, 17 h, 37 °C, 150 rpm, triplicates

Going from CC(C)C[C@@H]1NC(=O)CN(C)C(=O)[C@H](Cc2ccccc2)NCc2cc(c[nH]2)CNC1=O [16b, (5S,11S,Z)-11-Benzyl-5-isobutyl-9-dimethyl-1^1H-3,6,9,12-tetraaza-1(2,4)-pyrrolacyclotridecaphane-4,7,10-trione] to CC(C)C[C@@H]1NC(=O)[C@H](C)N(C)C(=O)[C@H](Cc2ccccc2)NCc2cc(c[nH]2)CNC1=O [16d, (5S,8S,11S,Z)-11-Benzyl-5-isobutyl-8,9-dimethyl-1^1H-3,6,9,12-tetraaza-1(2,4)-pyrrolacyclotridecaphane-4,7,10-trione], the “PAMPA −LogPe” value rises from 6.76 to 7.53.

Compared with CC(C)C[C@@H]1NC(=O)[C@H](C)N(C)C(=O)[C@H](Cc2ccccc2)NCc2ccc([nH]2)CNC1=O [14d, (5S,8S,11S)-11-Benzyl-5-isobutyl-8,9-dimethyl-1^1H-3,6,9,12-tetraaza-1(2,5)-pyrrolacyclotridecaphane-4,7,10-trione], CC(C)C[C@@H]1NC(=O)[C@H](C)NC(=O)[C@H](Cc2ccccc2)NCc2ccc([nH]2)CNC1=O [14a, (5S,8S,11S)-11-Benzyl-5-isobutyl-8-methyl-1^1H-3,6,9,12-tetraaza-1(2,5)-pyrrolacyclotridecaphane-4,7,10-trione, 1H-Benzo[d][1,2,3]triazol-1-ol] is higher in “PAMPA −LogPe” value: 5.01 for the first, 7.72 for the second.

First: CC(C)C[C@@H]1NC(=O)CN(C)C(=O)[C@H](Cc2ccccc2)NCc2ccc(n2C)CNC1=O [15b, (5S,11S)-11-Benzyl-5-isobutyl-1^1,9-dimethyl-1^1H-3,6,9,12-tetraaza-1(2,5)-pyrrolacyclotridecaphane-4,7,10-trione]
Second: CC(C)C[C@@H]1NC(=O)[C@H](C)N(C)C(=O)[C@H](Cc2ccccc2)NCc2ccc(n2C)CNC1=O [15d, (5S,8S,11S)-11-Benzyl-5-isobutyl-1^1,8,9-trimethyl-1^1H-3,6,9,12-tetraaza-1(2,5)-pyrrolacyclotridecaphane-4,7,10-trione]
The “PAMPA −LogPe” value of the first is lower: 5.93 for the first, 6.30 for the second.

First: CC(C)C[C@@H]1NC(=O)[C@H](C)N(C)C(=O)[C@H](Cc2ccccc2)NCc2cc(cn2C)CNC1=O [17d, (5S,8S,11S,Z)-11-Benzyl-5-isobutyl-1^1,8,9-trimethyl-1^1H-3,6,9,12-tetraaza-1(2,4)-pyrrolacyclotridecaphane-4,7,10-trione]
Second: CC(C)C[C@H]1C(=O)NCc2ccc([nH]2)CN[C@@H](Cc2ccccc2)C(=O)N[C@@H](C)C(=O)N1C [14c, (5S,8S,11S)-11-Benzyl-5-isobutyl-6,8-dimethyl-1^1H-3,6,9,12-tetraaza-1(2,5)-pyrrolacyclotridecaphane-4,7,10-trione, 1H-Benzo[d][1,2,3]triazol-1-ol]
The “PAMPA −LogPe” value of the first is higher: 6.61 ± 0.07 for the first, 5.12 for the second.

With CC(C)C[C@@H]1NC(=O)[C@H](C)NC(=O)[C@H](Cc2ccccc2)N(C)Cc2ccc([nH]2)CNC1=O [14e, (5S,8S,11S)-11-Benzyl-5-isobutyl-8,12-dimethyl-1^1H-3,6,9,12-tetraaza-1(2,5)-pyrrolacyclotridecaphane-4,7,10-trione, 1H-Benzo[d][1,2,3]triazol-1-ol] the “PAMPA −LogPe” value was 5.11.

For CC(C)C[C@@H]1NC(=O)CN(C)C(=O)[C@H](Cc2ccccc2)NCc2ccc([nH]2)CNC1=O [14b, (5S,11S)-11-Benzyl-5-isobutyl-9-methyl-1^1H-3,6,9,12-tetraaza-1(2,5)-pyrrolacyclotridecaphane-4,7,10-trione], the “PAMPA −LogPe” value was 5.89 and 5.89 ± 0.08.
In the case of CC(C)C[C@@H]1NC(=O)CN(C)C(=O)[C@H](Cc2ccccc2)NCC2=CC=C(CNC1=O)O2 [18b, (5S,11S)-11-Benzyl-5-isobutyl-9-methyl-3,6,9,12-tetraaza-1(2,5)-furanacyclotridecaphane-4,7,10-trione], the “PAMPA −LogPe” value is reported as 5.88 and 5.88 ± 0.04.
With CC(C)C[C@@H]1NC(=O)[C@H](C)NC(=O)[C@H](Cc2ccccc2)NCC2=CC=C(CN(C)C1=O)O2 [19a, (5S,8S,11S)-11-Benzyl-5-isobutyl-3,8-dimethyl-3,6,9,12-tetraaza-1(2,5)-furanacyclotridecaphane-4,7,10-trione] the “PAMPA −LogPe” value was 5.71 and 5.71 ± 0.03.
